Measurements: publication PMC9891357 (Molecular Cancer Therapeutics, 2022)

Assays:
USP46 = USP46 (Homo sapiens, UniProt P62068); experiment: Ubiquigent DUBprofiler biochemical panel, […] inhibition at […]
USP12 = USP12 (Homo sapiens, UniProt O75317); experiment: as above
Sequence of USP12 (O75317 whole entry): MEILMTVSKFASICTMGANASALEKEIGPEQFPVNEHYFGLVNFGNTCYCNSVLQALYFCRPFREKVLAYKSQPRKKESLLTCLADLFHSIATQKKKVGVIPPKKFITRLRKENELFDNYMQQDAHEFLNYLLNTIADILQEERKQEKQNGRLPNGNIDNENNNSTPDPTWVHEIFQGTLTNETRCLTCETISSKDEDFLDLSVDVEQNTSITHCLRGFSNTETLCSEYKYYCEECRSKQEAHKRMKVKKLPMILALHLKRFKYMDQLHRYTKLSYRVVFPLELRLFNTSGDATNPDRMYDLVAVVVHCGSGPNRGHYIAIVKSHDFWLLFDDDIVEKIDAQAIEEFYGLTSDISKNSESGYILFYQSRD
Sequence of USP12 (Q8TAF3 whole entry partner): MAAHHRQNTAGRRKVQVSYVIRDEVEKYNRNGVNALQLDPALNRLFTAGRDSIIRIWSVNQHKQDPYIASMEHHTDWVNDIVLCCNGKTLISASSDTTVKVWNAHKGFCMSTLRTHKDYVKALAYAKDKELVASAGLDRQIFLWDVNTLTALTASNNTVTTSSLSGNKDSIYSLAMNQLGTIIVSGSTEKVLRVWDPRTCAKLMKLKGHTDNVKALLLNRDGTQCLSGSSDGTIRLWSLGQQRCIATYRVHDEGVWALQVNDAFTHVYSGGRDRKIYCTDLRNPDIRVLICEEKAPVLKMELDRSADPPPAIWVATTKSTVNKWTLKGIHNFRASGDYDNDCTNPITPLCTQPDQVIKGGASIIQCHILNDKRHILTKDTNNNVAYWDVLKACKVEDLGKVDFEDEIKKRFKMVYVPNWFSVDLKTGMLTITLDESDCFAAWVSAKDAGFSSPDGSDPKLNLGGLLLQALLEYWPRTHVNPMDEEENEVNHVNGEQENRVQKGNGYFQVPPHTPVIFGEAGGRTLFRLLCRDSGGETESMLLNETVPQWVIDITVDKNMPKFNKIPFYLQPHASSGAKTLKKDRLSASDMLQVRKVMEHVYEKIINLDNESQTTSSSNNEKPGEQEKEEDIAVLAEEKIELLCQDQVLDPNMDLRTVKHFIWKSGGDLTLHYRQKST

Sequence of USP46 (P62068 whole entry): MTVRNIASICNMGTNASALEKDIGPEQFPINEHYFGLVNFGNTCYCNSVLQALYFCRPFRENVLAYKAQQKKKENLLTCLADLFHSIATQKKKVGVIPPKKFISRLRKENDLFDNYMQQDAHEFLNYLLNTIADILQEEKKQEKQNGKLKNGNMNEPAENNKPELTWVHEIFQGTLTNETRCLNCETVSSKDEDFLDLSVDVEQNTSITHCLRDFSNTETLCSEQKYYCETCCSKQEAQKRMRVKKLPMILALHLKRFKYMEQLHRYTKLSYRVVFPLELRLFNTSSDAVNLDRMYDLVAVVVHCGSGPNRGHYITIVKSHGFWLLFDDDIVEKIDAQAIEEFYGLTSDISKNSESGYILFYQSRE
Sequence of USP46 (Q8TAF3 whole entry partner): as the sequence (Q8TAF3 whole entry partner) above

CC(C)c1ccccc1-c1ncc2[nH]c(=O)n(Cc3ccc(-c4nc(C(F)(F)F)cn4C)cc3)c2n1 [I-138, 2-(2-isopropylphenyl)-9-(4-(1-methyl-4-(trifluoromethyl)-1H-imidazol-2-yl)benzyl)-7,9-dihydro-8H-purin-8-one]
IC50 (USP46): ~ 10 μmol/L | IC50 (USP12): ~ 10 μmol/L
